Key:
Format in all cases: biochemical
human DYRK1A = molecular target: T1, human DYRK1A (Homo sapiens, UniProt Q13627); assay: DYRK1A enzyme assay (ADP-Glo); conditions: ADP-Glo, ATP 60 μM; read-out: DYRK1A IC50
T1 construct: Recombinant full-length DYRK1A (expressed in E. Coli cells with an N-terminal GST tag); GST (N); purchased SignalChem D09-10G; host or cells: E. coli
In short: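 ADP formed is quantified by luciferase luminescence (ADP-Glo) after a 60-minute, 25 °C reaction with 60 μM ATP and 20 μM DYRKtide peptide. Enzyme: 3 nM recombinant N-terminal GST DYRK1A, given 30 min compound preincubation in Tris pH 7.5/MgCl2/BSA/DTT buffer; % inhibition versus plate controls, four-parameter IC50.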

human CLK1 = molecular target: T2, human CLK1 (Homo sapiens, UniProt P49759); assay: CLK1 enzyme assay (ADP-Glo); conditions: ADP-Glo, ATP 10 μM; read-out: CLK1 IC50
T2 construct: Recombinant human CLK1 (129-end); GST (N); purchased SignalChem C57-11G; host or cells: Sf9 insect cells
T2 sequence (P49759 129-484 limits assumed): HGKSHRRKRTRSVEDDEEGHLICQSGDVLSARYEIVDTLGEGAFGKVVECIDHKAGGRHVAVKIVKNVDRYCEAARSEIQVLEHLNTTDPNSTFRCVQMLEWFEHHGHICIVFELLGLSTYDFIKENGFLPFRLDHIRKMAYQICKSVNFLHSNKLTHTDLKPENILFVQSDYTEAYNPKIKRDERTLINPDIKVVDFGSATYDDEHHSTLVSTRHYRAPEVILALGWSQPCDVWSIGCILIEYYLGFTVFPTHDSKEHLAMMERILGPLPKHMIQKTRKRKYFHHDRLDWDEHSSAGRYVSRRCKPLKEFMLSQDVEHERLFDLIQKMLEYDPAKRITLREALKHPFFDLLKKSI
In short: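 GST-tagged CLK1 (129-end, Sf9-expressed) at 16 nM was preincubated with compound 30 min at 25 °C in 40 mM Tris pH 7.5, 20 mM MgCl2, 0.1 mg/ml BSA, 50 μM DTT. Reaction with 2 μM substrate and 10 μM ATP ran 60 min at 25 °C. ADP-Glo luminescence gave IC50 by four-parameter fit.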

human HIPK1 = molecular target: T3, human HIPK1 (Homo sapiens, UniProt Q86Z02); assay: HIPK1 enzyme assay (ADP-Glo); conditions: ADP-Glo, ATP 5 μM; read-out: HIPK1 IC50
T3 construct: Recombinant human HIPK1 (156-555); GST (N); purchased SignalChem H03-11G; host or cells: Sf9 insect cells
T3 sequence (Q86Z02 156-555): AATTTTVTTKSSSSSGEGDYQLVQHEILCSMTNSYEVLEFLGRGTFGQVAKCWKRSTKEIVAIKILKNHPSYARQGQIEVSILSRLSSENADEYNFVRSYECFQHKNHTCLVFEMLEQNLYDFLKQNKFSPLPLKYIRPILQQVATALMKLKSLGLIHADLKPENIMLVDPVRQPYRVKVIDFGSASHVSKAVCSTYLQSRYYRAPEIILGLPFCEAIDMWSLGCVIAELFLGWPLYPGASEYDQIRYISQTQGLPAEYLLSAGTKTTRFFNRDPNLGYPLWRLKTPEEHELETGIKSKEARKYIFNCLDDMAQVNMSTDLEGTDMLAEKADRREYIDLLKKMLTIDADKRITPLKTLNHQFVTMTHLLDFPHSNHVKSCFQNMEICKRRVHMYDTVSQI
In short: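 Recombinant GST-tagged HIPK1 (156-555, Sf9), 4 nM, preincubated 30 min at 25° C with compound in Tris pH 7.5/MgCl2/BSA/DTT, then reacted 90 min with 0.05 mg/ml MBP and 5 μM ATP. ADP formed read by ADP-Glo luminescence; IC50 from four-parameter logistic fit of % inhibition versus Max/Min controls.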

| Structure (SMILES) | IC50 (human DYRK1A) [nM] | IC50 (human CLK1) [nM] | IC50 (human HIPK1) [nM] |
| --- | --- | --- | --- |
| O=C1NC(Nc2ccc3ncsc3c2)=NC1Cc1ccc2ncsc2c1 (stereo not drawn) [Example 102, 2-(benzo[d]thiazol-6-ylamino)-5-(benzo[d]thiazol-6-ylmethyl)-3,5-dihydro-4H-imidazol-4-one] | 1000 to 10000 | 100 to 1000 | 100 to 1000 |
| NC1=N/C(=C\c2ccc3ncsc3c2)C(=O)N1 [Example 103, (Z)-2-amino-5-(benzo[d]thiazol-6-ylmethylene)-3,5-dihydro-4H-imidazol-4-one] | < 100 | < 100 | 100 to 1000 |
| O=C1NC(Nc2ccc3nc(Nc4ccccc4)sc3c2)=N/C1=C\c1ccc2ncsc2c1 [Example 104, (Z)-5-(benzo[d]thiazol-6-ylmethylene)-2-((2-(phenylamino)benzo[d]thiazol-6-yl)amino)-3,5-dihydro-4H-imidazol-4-one] | 1000 to 10000 | < 100 | > 10000 |
| O=C1NC(N(CC2CC2)c2ccc3ncsc3c2)=N/C1=C\c1ccc2ncsc2c1 [Example 105, (Z)-2-(benzo[d]thiazol-6-yl(cyclopropylmethyl)amino)-5-(benzo[d]thiazol-6-ylmethylene)-3,5-dihydro-4H-imidazol-4-one] | > 10000 | > 10000 | > 10000 |
